According to article PMC4574779, “Selective Production of 9R-Hydroxy-10E,12Z,15Z-Octadecatrienoic Acid from α-Linolenic Acid in Perilla Seed Oil Hydrolyzate by a Lipoxygenase from Nostoc Sp. SAG 25.82” (PLoS ONE, 2015):

Molecular target: T1, 9R-LOX (9R-lipoxygenase) from Nostoc sp. SAG 25.82 (Nostoc sp. PCC 7120 = FACHB-418, UniProt Q8YK97)
T1 construct: gene all8020; 9R-lox/pET-15b, His-tagged, E. coli ER2566, His-Trap purified
T1 sequence (Q8YK97 318-773 limits assumed): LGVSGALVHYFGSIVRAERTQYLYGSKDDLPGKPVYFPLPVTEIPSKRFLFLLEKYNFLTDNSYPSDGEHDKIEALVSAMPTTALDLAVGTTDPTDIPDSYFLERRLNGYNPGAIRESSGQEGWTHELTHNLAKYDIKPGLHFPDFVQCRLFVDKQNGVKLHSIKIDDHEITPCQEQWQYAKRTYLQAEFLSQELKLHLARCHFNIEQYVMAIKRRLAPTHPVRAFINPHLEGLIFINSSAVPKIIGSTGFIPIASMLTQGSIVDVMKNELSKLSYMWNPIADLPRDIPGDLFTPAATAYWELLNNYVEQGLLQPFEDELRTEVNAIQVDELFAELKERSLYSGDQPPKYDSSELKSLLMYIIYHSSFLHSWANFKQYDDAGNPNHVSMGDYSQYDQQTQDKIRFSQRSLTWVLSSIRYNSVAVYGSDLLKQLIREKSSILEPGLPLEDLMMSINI
Test: oxygen uptake (Clark-type electrode), nonlinear Michaelis-Menten fit
Assay type: biochemical
Details: O2 co-substrate; 50 mM Tris-HCl pH 8.5; 25°C in methods (results text: 15°C, 5% acetone, 0.2% Tween 80)
Excerpt: oxygen uptake (Clark-type electrode), nonlinear Michaelis-Menten fit on 9R-LOX (9R-lipoxygenase) from Nostoc sp. SAG 25.82

## CC/C=C\C/C=C\C/C=C\CCCCCCCC(=O)O [ALA, α-Linolenic acid]
  Km: 54 ± 1.3 µM

## CCCCC/C=C\C/C=C\C/C=C\CCCCC(=O)O [GLA, γ-Linolenic acid]
  Km: 54 ± 0.8 µM

## CCCCC/C=C\C/C=C\CCCCCCCC(=O)O [LA, Linoleic acid]
  Km: 404 ± 30 µM
